In assay [1] the test system is MEK1/2 phosphorylation in human colon cancer cell HT-29. As to the kind of experiment: Colon cancer cell HT-29 intracellular MEK phosphorylation inhibitory activity in vitro. Format: cell-based. Particulars: HT-29 cells; for IC50: 2 hrs treatment, phosphorylated MEK1/2 Western blot; for inhibition at 0.5 µM: MEK1/2 protein phosphorylation, compound 0.5 μM, read-out: Inhibitory rate (%) at 0.5 μM. Here is the method: 500 μL of a cell suspension of human colon cancer cell HT-29 (purchased from American Type Culture Collection (ATCC)) was plated in a 48-well plate (100,000 cells/well), and the cells were cultured overnight at 37° C. in the presence of 5% CO2, treated with a test compound (250 μL/well) diluted in 3-fold dilution series and cultured for 2 hrs. After 2 hrs, the culture medium containing the test compound was removed, and the cells were lysed with SDS sample buffer (100 μL/well) and heated at 95° C. for 5 min. Thereafter, the cells lysed with SDS sample buffer were applied to SDS-PAGE, and the protein was transferred onto Sequi-Blot™ PVDF Membrane (Bio-Rad) by the Western blot method. The PDVF membrane was blocked with a Block-Ace solution (Snow Brand Milk Products Co., Ltd) dissolved in phosphate buffered saline (MP Biochemicals) to 5% W/V, and reacted overnight with anti-phosphorylated MEK1/2 (Ser217/221) (Cell signaling #9121) diluted 1000-fold with phosphate buffered saline containing 0.4% Block-Ace. The membrane was washed with phosphate buffered saline containing 0.1% Tween 20 (Wako Pure Chemical Industries, Ltd.), and reacted at room temperature for 1 hr with HRP labeled rabbit IgG polyclonal antibody (Cell signaling #7074) diluted 1000-fold with phosphate buffered saline containing 0.4% Block-Ace. The membrane was washed in the same manner as above, chemical luminescence of a phosphorylated MEK1/2 protein labeled with the antibody, which was caused by ECL-plus Detection Reagent (Amersham bioscience), was detected by Luminescent Image Analyzer LAS-1000 (FUJIFILM Corporation). Taking the luminescence of the control group free of the test compound as 100%, the concentration (IC50 value) of the compound necessary for inhibiting the residual luminescence to 50% of the control group was calculated. In addition, MEK1/2 protein phosphorylation inhibitory rate (%) of the test compound at compound concentration 0.5 μM was calculated by the following formula. The results are shown in Table 2-B. Inhibitory rate (%)=(1−(luminescence of test compound−blank)÷(luminescence of control group−blank))×100
In general terms: In western blotting, separated proteins are transferred to a membrane and probed.

Assay [2] has as its system phosphorylated ERK1/2 in A-375 tumor. The assay can be described thus: Intratumor phosphorylated ERK inhibitory activity in malignant melanoma cell A-375 cancer-bearing rat. In kind it is in vivo. As to conditions: phosphorylated ERK1/2 in A-375 tumor of nude rat, 25 mg/kg oral, 4 hrs after administration. The protocol:
Human malignant melanoma cell A-375 (purchased from ATCC) was transplanted into 5-week-old nude rat (F344/N Jcl-mu/mu female (CLEA Japan, Inc.)) at 1.0×10^7 cells by subcutaneous injection. After 2-5 weeks from the transplantation, a test compound dissolved in 5% DMSO, 10% Cremophor, 20% PEG-400 and 65% distilled water was orally administered to rats having an engrafted tumor with a tumor volume of 200-800 mm^3 at a dose of 25 mg/kg body weight. After 4 hrs from the administration of the test compound, the tumor was collected under ether anesthesia and the tumor was homogenized in RIPA buffer (1% NP-40, 0.5% sodium deoxycholate, 1% SDS, 97.5% DPBS (GIBCO) with Protease Inhibitor Cocktail Set 3 (calbiochem) and Phosphatase Inhibitor Cocktail 2 (Sigma)). The protein in the tumor lysate was quantified using BCA Protein assay kit (Thermo), and the protein amount in the tumor lysate was adjusted to 1.25 μg/μL. 2×SDS sample buffer was added to the above-mentioned protein solution and the mixture was treated at 95° C. for 5 min.
Thereafter, SDS-PAGE was performed and the protein was transferred onto Sequi-Blot PVDF Membrane (Bio-Rad) by the Western blot method. The membrane was blocked with 5% (w/v) Block-Ace solution dissolved in phosphate buffered saline and reacted overnight with anti-phosphorylated ERK1/2 (Thr202/Tyr204) (Cell Signaling #9101) diluted 1000-fold with phosphate buffered saline containing 0.4% (w/v) Block-Ace. The membrane was washed with phosphate buffered saline containing 0.1% Tween20 (Wako Pure Chemical Industries, Ltd.), and reacted with HRP-labeled rabbit IgG polyclonal antibody (Cell Signaling #7074) diluted 1000-fold with phosphate buffered saline containing 0.4% Block-Ace for 1 hr at room temperature. […]
(Amersham Biosciences), and detected with luminoimage analyzer LAS-1000 (Fuji Film). The phosphorylated ERK1/2 protein inhibitory rate (%) of the test compound was calculated by the following formula. Inhibitory rate (%)=(1−(luminescence of test compound−blank)÷(luminescence of control group−blank))×100

The subject of assay [3] is human colon cancer cell HT-29. The assay can be described thus: Colon cancer cell HT-29 growth suppressive activity in vitro. In kind it is cell-based. Here is the method: 100 μL of a cell suspension (3,000 cells/well) of human colon cancer cell HT-29 (purchased from ATCC) was plated in a 96-well plate, and the cells were cultured at 37° C. in the presence of 5% CO2. The next day, 100 μL of culture medium containing each test compound diluted in 2-fold dilution was added, and the cells were cultured for 3 days. The culture medium containing the test compound was removed, and the cells were washed with phosphate buffered saline (MP Biochemicals). A 50% trichloroacetic acid solution was added to the final concentration of 10% (v/v), and the mixture was stood overnight at 4° C., whereby the cells were fixed to the plate. Then, a dye SRB 0.4% (w/v) solution (dissolved in 1% acetic acid) was added at 50 μl/well, whereby the cell protein was fixed and stained (Skehan et al., Journal Of National Cancer Institute, vol. 82, pp. 1107-1112, 1990). The cells were washed 3 times with 1% acetic acid solution (200 μL/well), and 100 μL of an extract (10 mM Tris buffer) was added to extract the dye. The absorbance at an absorption wavelength 550 nm was measured, and cell amount was measured as a protein amount. Taking the protein amount of the control group free of the test compound solution as 100%, the proportion of the residual protein amount of each treatment group was determined and the concentration of the compound necessary for suppressing the residual cell amount to 50% of the control (IC50 value) was calculated. In addition, cell proliferation inhibitory rate (%) of the test compound at compound concentration 10 μM was calculated by the following formula. The results are shown in Table 3-B. Inhibitory rate (%)=(1−(absorbance of test compound−blank)÷(absorbance of control group−blank))×100

In general, IC50 refers to the point on the concentration scale where inhibition reaches its midpoint.

With `CC(C)(C#N)c1cccc(C(=O)Nc2cccc(Oc3ccc4nc(NC(=O)C5CC5)sc4c3C#N)c2)c1Cl` [Example 3, 2-chloro-N-[3-({7-cyano-2-[(cyclopropylcarbonyl)amino]-1,3-benzothiazol-6-yl}oxy)phenyl]-3-(1-cyano-1-methylethyl)benzamide], in assay [1], the IC50 was less than 300 nM and the inhibition at 0.5 µM was determined as 86%. The “Inhibitory rate (%)” value in assay [2] is 71%.
With `N#Cc1c(Oc2cccc(NC(=O)Cc3cccc(C(F)(F)F)c3)c2)ccc2nc(NC(=O)C3CC3)sc12` [Example 50, N-{7-cyano-6-[3-({[3-(trifluoromethyl)phenyl]acetyl}amino)phenoxy]-1,3-benzothiazol-2-yl}cyclopropanecarboxamide], the IC50 in assay [3] (72 h, HT-29 cells, 3 days culture, SRB staining) was less than 500 nM. The inhibition at 10 µM in assay [3] (HT-29 cell proliferation, compound 10 μM, read-out: Inhibitory rate (%) at 10 μM) was determined as 91%. In addition, the “Inhibitory rate (%)” value in assay [2] was 76%.
Consider `N#Cc1c(Oc2ccc(F)c(NC(=O)Cc3cccc(C(F)(F)F)c3)c2)ccc2nc(NC(=O)C3CC3)sc12` [Example 53, N-{7-cyano-6-[4-fluoro-3-({[3-(trifluoromethyl)phenyl]acetyl}amino)phenoxy]-1,3-benzothiazol-2-yl}cyclopropanecarboxamide], for which, in assay [1], the IC50 is less than 300 nM and the inhibition at 0.5 µM was determined as 79%. In addition, the “Inhibitory rate (%)” value in assay [2] came out at 88%.

The values are drawn from patent US8497274B2, “Heterocyclic compound and use thereof” (Takeda Pharmaceutical Company Limited, priority 2008, dated 2013).
